Data set [1] can be described thus: Fraction unbound in human Plasma. In kind it is ADME, cell-free.
In data set [2] the target is Aurora kinase B (Homo sapiens) (UniProt Q96GD4). As to the kind of experiment: Inhibition of Aurora kinase B (unknown origin). Conditions: concentration not given here.
The target of data set [3] is Serine/threonine-protein kinase mTOR (Homo sapiens, UniProt P42345). As to the kind of experiment: Inhibition of mTOR (unknown origin).
For data set [4], the target named is Cytochrome P450 2C9 (Homo sapiens, UniProt P11712). In words: Inhibition of CYP2C9 (unknown origin). In kind it is ADME.
The target in data set [5] is Phosphatidylinositol 4,5-bisphosphate 3-kinase catalytic subunit alpha isoform (Homo sapiens, UniProt P42336). In words: Inhibition of PI-3K alpha (unknown origin).
For data set [6], the target named is T1, Cytochrome P450 1A2 (Homo sapiens, UniProt P05177).
T1 sequence (P05177 whole entry): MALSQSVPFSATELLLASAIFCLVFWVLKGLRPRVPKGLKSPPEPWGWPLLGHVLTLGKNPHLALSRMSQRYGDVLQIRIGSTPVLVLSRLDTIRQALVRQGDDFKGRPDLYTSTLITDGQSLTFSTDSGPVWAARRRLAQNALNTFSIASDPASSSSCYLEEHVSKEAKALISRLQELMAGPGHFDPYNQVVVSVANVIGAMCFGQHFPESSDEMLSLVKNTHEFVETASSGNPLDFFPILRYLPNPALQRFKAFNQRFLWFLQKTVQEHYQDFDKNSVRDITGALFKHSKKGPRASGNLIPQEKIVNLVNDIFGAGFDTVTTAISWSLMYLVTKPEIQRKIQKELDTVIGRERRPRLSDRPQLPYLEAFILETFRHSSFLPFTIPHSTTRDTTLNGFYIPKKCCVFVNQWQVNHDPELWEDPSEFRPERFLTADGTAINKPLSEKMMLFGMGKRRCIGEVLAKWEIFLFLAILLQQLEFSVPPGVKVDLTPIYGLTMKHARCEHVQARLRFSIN
As to the kind of experiment: Inhibition of CYP1A2 (unknown origin). It is filed as ADME.

In data set [7] the target is Serine/threonine-protein kinase ATR (Homo sapiens, UniProt Q13535). As to the kind of experiment: Inhibition of ATR (unknown origin).
Data set [8] has as its target Cytochrome P450 3A4 (Homo sapiens, UniProt P08684). As to the kind of experiment: Inhibition of CYP3A4 (unknown origin). In kind it is ADME.
Data set [9] deals with Cytochrome P450 2C19 (Homo sapiens, UniProt P33261). As to the kind of experiment: Inhibition of CYP2C19 (unknown origin). It is filed as ADME.
Data set [10] concerns HeLa. As to the kind of experiment: Antiproliferative activity against human HeLa cells assessed as cell viability after 6 to 8 days by DMR clonogenic assay. It is filed as cell-based.
The target in data set [11] is Serine-protein kinase ATM (Homo sapiens, UniProt Q13315). As to the kind of experiment: Inhibition of ATM (unknown origin).
Data set [12] deals with Phosphatidylinositol 4,5-bisphosphate 3-kinase catalytic subunit gamma isoform (Homo sapiens, UniProt P48736). As to the kind of experiment: Inhibition of PI-3K gamma (unknown origin).
Data set [13] is described as follows: Aqueous solubility of the compound at pH 7.4. It is filed as physicochemical. Conditions: buffer.
The target in data set [14] is Phosphatidylinositol 4,5-bisphosphate 3-kinase catalytic subunit beta isoform (Homo sapiens, UniProt P42338). In words: Inhibition of PI-3K beta (unknown origin).
Data set [15] can be described thus: Lipophilicity, log D of the compound. It is filed as physicochemical. Particulars: octanol/water.
Data set [16] concerns the target Cytochrome P450 2D6 (Homo sapiens, UniProt P10635). As to the kind of experiment: Inhibition of CYP2D6 (unknown origin). In kind it is ADME.
Data set [17] addresses DNA-dependent protein kinase catalytic subunit (Homo sapiens, UniProt P78527). As to the kind of experiment: Inhibition of DNA-PK autophosphorylation at S2056 in human HeLa cells. In kind it is cell-based.
In data set [18] the target is T2, Phosphatidylinositol 4,5-bisphosphate 3-kinase catalytic subunit delta isoform (Homo sapiens, UniProt O00329).
T2 sequence (O00329 whole entry): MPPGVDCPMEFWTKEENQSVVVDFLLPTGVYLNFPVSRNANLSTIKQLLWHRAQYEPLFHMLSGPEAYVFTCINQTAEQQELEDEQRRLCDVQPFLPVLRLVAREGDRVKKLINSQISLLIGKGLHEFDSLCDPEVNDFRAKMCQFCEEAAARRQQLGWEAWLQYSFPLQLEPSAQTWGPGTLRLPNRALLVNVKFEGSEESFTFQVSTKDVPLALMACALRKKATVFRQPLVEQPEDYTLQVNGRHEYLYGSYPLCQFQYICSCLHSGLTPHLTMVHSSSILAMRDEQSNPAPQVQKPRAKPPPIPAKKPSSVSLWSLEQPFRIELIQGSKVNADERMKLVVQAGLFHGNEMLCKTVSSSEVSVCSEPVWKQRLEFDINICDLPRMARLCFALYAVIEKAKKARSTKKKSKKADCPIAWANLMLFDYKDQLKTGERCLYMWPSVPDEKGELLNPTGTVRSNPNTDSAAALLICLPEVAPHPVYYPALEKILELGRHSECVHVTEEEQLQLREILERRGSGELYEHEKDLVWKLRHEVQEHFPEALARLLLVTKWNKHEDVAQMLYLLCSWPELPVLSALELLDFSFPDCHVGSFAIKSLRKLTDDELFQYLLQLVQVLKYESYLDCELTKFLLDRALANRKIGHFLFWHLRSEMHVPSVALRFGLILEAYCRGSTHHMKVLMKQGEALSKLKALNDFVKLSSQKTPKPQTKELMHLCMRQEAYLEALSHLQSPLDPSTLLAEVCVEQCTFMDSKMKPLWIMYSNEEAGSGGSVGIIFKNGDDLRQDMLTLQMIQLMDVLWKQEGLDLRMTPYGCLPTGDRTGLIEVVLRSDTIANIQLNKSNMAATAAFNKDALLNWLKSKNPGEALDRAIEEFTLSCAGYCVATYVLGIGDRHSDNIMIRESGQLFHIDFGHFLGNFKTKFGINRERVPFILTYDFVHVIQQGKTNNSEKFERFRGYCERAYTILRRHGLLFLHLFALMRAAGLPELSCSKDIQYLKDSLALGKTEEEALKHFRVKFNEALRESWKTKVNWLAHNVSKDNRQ
As to the kind of experiment: Inhibition of PI-3K delta (unknown origin).

pEC50, pIC50: −log10 of the molar value. ≈ marks a conversion by molar mass, not a printed value.

Sequence of Cytochrome P450 3A4 (P08684 whole entry): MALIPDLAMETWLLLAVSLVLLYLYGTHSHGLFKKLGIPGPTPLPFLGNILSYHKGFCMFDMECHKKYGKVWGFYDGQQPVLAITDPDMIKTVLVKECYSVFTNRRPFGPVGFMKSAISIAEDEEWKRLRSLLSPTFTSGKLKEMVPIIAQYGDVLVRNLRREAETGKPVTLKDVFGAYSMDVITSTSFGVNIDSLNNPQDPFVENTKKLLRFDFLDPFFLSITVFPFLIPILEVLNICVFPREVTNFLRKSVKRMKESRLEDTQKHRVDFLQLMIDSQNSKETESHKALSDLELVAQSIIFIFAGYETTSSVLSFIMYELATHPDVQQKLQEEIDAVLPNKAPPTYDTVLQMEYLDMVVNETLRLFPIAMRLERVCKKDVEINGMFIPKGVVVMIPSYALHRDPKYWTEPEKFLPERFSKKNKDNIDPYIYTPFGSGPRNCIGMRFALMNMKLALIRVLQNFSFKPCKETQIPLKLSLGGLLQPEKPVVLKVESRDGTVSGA
Sequence of Serine-protein kinase ATM (Q13315 whole entry, canonical isoform): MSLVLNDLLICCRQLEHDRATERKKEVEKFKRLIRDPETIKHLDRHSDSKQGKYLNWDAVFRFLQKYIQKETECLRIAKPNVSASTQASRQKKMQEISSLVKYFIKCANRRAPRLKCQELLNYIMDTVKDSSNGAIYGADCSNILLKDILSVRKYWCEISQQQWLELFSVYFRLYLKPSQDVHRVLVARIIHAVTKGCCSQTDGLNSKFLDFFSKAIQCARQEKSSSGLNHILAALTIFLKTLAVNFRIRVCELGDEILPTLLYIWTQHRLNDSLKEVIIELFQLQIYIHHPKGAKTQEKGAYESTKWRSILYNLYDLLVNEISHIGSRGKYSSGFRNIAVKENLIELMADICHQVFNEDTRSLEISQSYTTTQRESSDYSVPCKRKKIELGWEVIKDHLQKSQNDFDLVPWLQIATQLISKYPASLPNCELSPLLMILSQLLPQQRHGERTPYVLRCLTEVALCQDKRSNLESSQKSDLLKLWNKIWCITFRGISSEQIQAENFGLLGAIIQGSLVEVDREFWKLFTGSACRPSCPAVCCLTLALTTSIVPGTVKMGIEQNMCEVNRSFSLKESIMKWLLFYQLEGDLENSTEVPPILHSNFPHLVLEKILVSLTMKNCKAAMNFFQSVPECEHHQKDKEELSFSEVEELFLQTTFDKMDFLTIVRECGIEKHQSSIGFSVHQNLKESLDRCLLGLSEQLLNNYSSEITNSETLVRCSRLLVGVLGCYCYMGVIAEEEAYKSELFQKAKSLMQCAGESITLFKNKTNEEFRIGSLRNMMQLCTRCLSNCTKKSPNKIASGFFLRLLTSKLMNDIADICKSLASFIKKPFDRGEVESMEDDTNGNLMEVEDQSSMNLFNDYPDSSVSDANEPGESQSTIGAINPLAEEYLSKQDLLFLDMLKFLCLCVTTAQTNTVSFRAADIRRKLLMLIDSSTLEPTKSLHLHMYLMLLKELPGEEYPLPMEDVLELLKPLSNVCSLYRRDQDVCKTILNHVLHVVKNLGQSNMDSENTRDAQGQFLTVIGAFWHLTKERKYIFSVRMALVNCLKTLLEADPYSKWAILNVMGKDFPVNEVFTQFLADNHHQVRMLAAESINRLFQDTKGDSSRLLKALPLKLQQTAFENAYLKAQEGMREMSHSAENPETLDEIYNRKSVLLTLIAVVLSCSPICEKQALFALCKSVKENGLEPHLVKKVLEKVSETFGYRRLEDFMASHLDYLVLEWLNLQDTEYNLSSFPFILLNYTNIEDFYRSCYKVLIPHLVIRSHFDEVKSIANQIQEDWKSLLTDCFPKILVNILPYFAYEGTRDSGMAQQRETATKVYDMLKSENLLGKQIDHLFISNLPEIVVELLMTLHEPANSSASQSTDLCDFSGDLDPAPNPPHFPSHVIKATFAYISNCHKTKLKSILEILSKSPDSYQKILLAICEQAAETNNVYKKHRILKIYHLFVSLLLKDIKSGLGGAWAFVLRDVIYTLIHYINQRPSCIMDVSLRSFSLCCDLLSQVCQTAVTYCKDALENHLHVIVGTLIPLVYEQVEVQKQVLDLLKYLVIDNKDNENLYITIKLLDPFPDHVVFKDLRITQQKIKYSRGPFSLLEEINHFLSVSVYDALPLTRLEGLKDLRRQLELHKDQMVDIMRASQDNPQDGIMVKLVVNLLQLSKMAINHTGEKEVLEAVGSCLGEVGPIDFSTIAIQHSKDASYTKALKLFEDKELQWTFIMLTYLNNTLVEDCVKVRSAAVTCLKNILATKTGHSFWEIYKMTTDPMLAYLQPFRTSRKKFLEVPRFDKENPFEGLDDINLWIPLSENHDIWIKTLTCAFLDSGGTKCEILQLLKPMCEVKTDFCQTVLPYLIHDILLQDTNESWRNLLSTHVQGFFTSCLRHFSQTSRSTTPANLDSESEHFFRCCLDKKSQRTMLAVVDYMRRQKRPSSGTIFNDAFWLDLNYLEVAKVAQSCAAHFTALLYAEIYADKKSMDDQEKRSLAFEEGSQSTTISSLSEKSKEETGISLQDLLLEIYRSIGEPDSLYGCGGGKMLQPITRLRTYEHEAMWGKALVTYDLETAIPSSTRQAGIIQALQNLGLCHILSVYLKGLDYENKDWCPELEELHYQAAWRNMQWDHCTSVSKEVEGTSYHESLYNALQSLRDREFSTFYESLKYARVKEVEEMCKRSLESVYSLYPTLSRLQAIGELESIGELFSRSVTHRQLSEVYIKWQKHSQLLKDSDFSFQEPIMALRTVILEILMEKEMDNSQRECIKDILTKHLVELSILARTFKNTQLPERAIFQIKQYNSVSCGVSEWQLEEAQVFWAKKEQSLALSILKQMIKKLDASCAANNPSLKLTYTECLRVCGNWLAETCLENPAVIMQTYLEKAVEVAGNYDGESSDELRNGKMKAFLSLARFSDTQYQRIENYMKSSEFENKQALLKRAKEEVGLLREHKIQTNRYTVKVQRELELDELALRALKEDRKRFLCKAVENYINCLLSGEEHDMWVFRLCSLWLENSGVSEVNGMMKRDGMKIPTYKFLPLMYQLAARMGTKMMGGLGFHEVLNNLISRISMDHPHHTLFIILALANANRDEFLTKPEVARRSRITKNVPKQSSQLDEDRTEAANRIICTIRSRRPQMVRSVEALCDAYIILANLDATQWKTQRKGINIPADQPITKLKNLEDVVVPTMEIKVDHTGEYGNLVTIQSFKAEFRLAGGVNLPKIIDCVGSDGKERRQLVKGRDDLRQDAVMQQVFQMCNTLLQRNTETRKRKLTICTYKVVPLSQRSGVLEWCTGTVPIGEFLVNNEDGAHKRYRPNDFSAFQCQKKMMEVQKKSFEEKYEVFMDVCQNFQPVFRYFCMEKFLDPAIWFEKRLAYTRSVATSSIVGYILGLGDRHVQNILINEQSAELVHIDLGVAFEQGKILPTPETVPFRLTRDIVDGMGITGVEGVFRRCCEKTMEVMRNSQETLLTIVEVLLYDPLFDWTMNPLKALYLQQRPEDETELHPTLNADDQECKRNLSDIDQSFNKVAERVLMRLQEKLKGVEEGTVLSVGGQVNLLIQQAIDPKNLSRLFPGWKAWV
Sequence of Cytochrome P450 2C19 (P33261 whole entry): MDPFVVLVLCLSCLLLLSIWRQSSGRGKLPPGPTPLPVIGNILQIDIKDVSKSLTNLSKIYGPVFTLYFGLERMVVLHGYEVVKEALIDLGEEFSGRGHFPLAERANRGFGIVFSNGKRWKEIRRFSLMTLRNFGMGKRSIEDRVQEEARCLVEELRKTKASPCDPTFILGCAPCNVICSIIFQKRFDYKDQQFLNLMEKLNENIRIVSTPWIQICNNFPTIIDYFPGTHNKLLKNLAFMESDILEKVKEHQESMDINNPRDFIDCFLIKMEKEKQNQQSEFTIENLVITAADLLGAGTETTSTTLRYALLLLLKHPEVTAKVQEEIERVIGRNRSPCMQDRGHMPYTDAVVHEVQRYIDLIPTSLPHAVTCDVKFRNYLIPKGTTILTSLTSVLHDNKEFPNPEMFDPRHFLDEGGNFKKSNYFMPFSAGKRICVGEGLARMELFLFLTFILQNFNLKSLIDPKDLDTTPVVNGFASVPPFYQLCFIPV
Sequence of Phosphatidylinositol 4,5-bisphosphate 3-kinase catalytic subunit alpha isoform (P42336 whole entry, canonical isoform): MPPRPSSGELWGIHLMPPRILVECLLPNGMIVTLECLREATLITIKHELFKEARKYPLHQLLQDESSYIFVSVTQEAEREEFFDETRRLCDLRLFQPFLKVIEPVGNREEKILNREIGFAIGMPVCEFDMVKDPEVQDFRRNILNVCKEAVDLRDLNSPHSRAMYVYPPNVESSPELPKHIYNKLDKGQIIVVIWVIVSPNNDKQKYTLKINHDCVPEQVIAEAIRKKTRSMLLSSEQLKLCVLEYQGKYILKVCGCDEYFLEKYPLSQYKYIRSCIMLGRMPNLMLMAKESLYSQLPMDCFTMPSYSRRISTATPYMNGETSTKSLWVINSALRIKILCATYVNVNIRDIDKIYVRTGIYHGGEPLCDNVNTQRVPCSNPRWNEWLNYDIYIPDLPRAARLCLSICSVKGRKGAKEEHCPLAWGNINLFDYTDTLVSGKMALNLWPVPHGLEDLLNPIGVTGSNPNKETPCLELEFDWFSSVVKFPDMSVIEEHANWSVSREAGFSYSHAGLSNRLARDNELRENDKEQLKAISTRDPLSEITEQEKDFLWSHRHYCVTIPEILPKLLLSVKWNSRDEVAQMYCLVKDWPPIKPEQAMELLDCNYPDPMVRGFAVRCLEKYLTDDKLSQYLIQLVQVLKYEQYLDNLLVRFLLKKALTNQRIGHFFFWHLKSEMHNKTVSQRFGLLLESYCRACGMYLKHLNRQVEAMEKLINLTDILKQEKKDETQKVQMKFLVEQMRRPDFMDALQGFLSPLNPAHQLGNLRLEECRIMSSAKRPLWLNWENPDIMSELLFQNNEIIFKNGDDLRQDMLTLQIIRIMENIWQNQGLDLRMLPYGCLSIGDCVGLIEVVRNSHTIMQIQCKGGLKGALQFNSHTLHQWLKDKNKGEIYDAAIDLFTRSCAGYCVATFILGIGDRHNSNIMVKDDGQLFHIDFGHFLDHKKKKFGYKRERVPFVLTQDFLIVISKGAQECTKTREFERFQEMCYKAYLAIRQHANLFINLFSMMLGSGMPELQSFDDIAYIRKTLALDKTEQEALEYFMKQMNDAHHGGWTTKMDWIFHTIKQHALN

For `CCN1CCN(CC(=O)Nc2ccc(-c3cccc4c(=O)cc(N5CCOCC5)oc34)c3sc4ccccc4c23)CC1`, in [1], the fraction unbound (usually free concentration divided by total concentration) came out at 0.036. For the same compound, the inhibition – broadly, how much of the control response was suppressed – in [2] is 44%. Further, the pIC50 – broadly, −log10 of the IC50, conventionally taken in molar units – is 5.00 in data set [3]; less than 5.00 in [4]; 8.40 in data set [5]; less than 5.00 in data set [6]; less than 5.00 in data set [7]; less than 5.00 in [8]. Moreover, the negative-log IC50 (pIC50) in data set [9] is less than 5.00; in data set [10], less than 4.60; in [11], less than 5.00; in data set [12], 6.23; in data set [14], 9.30; in data set [16] it was less than 5.00. Besides, the negative logarithm of the IC50 (pIC50) in data set [18] was greater than 10.00. In [13], the solubility – broadly, the dissolved amount per volume that the medium holds – came out at 161 µM (≈ 93.8 µg/mL). The logD – broadly, lipophilicity at a set pH, counting ionised and neutral species – in data set [15] was determined as 3.05. For the same compound, the pEC50 (usually the EC50 on a negative log10 scale, so that one unit is a factor of ten) in data set [17] is 6.87.

These data come from ChEMBL document CHEMBL2417539, “1-substituted (Dibenzo[b,d]thiophen-4-yl)-2-morpholino-4H-chromen-4-ones endowed with dual DNA-PK/PI3-K inhibitory activity” (J Med Chem, 2013).
